Experiments:
PAR4-S66E = biological target: T1, PAR4-S66E (Homo sapiens, UniProt Q96RI0, S66E); assay: PAR4 mutant calcium flux assay, HEK293T/17 cells, S66E; format: cell-based; settings: 100 nM vorapaxar
T1 construct: Flag; expressed in transfected cells; host or cells: HEK293T/17 (ATCC CRL-11268)
T1 sequence (Q96RI0 18-385 S66E): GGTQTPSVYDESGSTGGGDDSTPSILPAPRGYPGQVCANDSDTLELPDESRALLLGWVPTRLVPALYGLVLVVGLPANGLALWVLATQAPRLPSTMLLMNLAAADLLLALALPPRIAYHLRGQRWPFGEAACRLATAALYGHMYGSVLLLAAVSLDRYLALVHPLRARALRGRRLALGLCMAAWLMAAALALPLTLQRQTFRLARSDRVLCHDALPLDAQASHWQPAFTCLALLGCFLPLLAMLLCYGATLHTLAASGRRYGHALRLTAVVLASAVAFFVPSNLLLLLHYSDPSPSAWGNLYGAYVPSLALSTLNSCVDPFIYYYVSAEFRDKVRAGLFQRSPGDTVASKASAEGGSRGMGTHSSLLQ
Experimental: PAR4 mutant calcium flux assays. Using Quikchange Lightning Site-Directed mutagenesis (Agilent) per manufacturing instructions, pCMV-Flag-PAR4-S66E, pCMV-Flag-PAR4-S67E, and pCMV-Flag-PAR4-R68E were generated from mutation of pCMV-Flag-PAR4 and confirmed by sequencing (University of Utah DNA Sequencing Core). Prior to transfection, HEK293T/17 cells (ATCC CRL-11268) were seeded at 4.5×10^4/mL. The following day, cells were transfected with the plasmid of interest using Lipofectamine 2000 (Invitrogen, Carlsbad, CA, USA). Twenty-four hours after transfection, media was removed and replaced with Optimem w/Glutamax (Gibco, Carlsbad, CA, USA) containing vorapaxar (100 nM) (Cayman Chemical, Ann Arbor, MI, USA) and Fura2-QBT (Molecular Devices). Following incubation for 1 hour at 37° C., plate was placed in the Flexstation 3 (Molecular Devices) where agonists, Tyrode's Buffer, cathepsin G (2.5 μM), or α-thrombin (1.5 U/mL), were injected onto cells and calcium mobilization was monitored and recorded.

washed platelets = assay: Platelet aggregation of human washed platelets; format: cell-based; settings: for platelet aggregation, species comparison: humans: 1 U/mL human thrombin, 1 μM human CatG or 1 mM RA-11mer
Experimental: Platelet isolation, aggregation, and activation. Human washed platelets were prepared and resuspended in Tyrode's Buffer at 2×10^8/mL as described (Edelstein et al., Nat Med. 2013; 19(12):1609-1616). For human and dog platelet comparisons, platelets were prepared using a modified human platelet protocol with final concentrations of […] (Cayman Chemical, Ann Arbor, MI, USA) used during centrifugation steps. Centrifugations after Tyrode's washes was decreased to 1,250×g as described in Cremer et al., PLOS One. 2019; 14(11): e0224891. Platelet aggregation was measured under stirring conditions at 37° C. using a PAP-8E aggregometer after treatment with the following agonists: arachidonic acid (Bio/Data Corporation, Horsham, PA, USA), cathepsin G, elastase, proteinase 3 (Athens Research Group), α-thrombin (Sigma, St. Louis, MO, USA), PAR-1 peptide (SFLLRN) (GL Biochem, China). P-selectin and PAC-1 were measured as previously described (Yee et al., J Thromb Haemost. 2006; 4(9):2043-2050; Tourdot et al., Arterioscler Thromb Vasc Biol. 2014; 34(12):2644-2650).
GYPGQV-NH2 (SEQ ID NO: 5), RALLLGWVPTR-NH2 (SEQ ID NO: 1), ALLLGWVPTR-NH2 (SEQ ID NO: 2), RALLLG-NH2 (SEQ ID NO: 4). Peptides were synthesized by BIOMATIK (Wilmington, DE, USA) at similar purities. All peptides were suspended in 50% DMSO and 50% ethanol. To measure platelet activation, washed platelets were stimulated with various concentrations of the peptide in the presence of CD41-APC, P-selectin (PE) and PAC-1 (FITC) for 15 minutes at 37° C. and then fixed with FACS Lysis Buffer. Samples were immediately run on a Cytoflex flow cytometer. In some experiments, platelets were stimulated with peptides and platelet aggregation performed as described above. Platelet calcium flux was induced by RALLLGWVPTR (2 mM; SEQ ID NO: 1), CatG (500 nM), ALLLGWVPTR (2 mM; SEQ ID NO: 2) or tyrodes buffer and monitored as described above.

thrombin
thrombin-induced calcium flux, S66E mutant compared with WT (PAR4-S66E; thrombin 1.5 U/mL): None of the PAR4 mutants were significantly different than WT
platelet aggregation, species comparison: humans (washed platelets): induced platelet aggregation

CatG: serine protease cathepsin G released by activated neutrophils
CatG-induced calcium flux, S66E mutant compared with WT (PAR4-S66E; CatG 2.5 μM): slight decrease
platelet aggregation, species comparison: humans (washed platelets): induced platelet aggregation
potency as activator of PAR4, comparison (washed platelets; from platelet aggregation data): much less potent than the thrombin enzyme
platelet aggregation induced by neutrophil serine protease (washed platelets; washed platelets, 400 nM protease): only protease to induce platelet aggregation

— US12077607B2, “Functional and therapeutic effects of PAR4 cleavage by cathepsin G” (UNIVERSITY OF UTAH RESEARCH FOUNDATION, priority 2021, dated 2024)
